Consider one compound from ChEMBL document CHEMBL5729525, “Therapeutic compounds and methods of use thereof” (2023).

A value given as a limit tells only on which side of the number the result lay.

In the experiment the target is Protein cereblon (Homo sapiens, UniProt Q96SW2). As to the kind of experiment: Fluorescence Binding Assay: Fluorescence quenching end point measurements were performed in black polystyrene 384-plates on Tecan Safire monochromator reader with the following settings: excitation 280 nm; excitation bandwidth 10.0 nm; emission collection 340 nm; emission bandwidth 20.0 nm; high sensitivity flash mode; integration time 40 μS; delay 0 […]. All measurements were done in duplicates; GraphPad Prism 5.03 was used for data evaluation, curve fitting, plotting and determination of IC50 values.Serial dilutions of each tested ligands were mixed with truncated CRBN (319-427) to a final volume of 25 μL in the assay buffer (20 mM sodium phosphate buffer, pH 6.5, with 150 mM sodium chloride). The final concentration of CRBN in all assay will be 5-10 μM with DMSO level at 4%. A control lanes were prepared with only tested ligands without the addition of CRBN, top up with assay buffer to 25 μL. Plates were incubated for 5 minutes and analyzed using the monochromator plate reader.
Protein cereblon, sequence (Q96SW2 whole entry, the tested form may be a part): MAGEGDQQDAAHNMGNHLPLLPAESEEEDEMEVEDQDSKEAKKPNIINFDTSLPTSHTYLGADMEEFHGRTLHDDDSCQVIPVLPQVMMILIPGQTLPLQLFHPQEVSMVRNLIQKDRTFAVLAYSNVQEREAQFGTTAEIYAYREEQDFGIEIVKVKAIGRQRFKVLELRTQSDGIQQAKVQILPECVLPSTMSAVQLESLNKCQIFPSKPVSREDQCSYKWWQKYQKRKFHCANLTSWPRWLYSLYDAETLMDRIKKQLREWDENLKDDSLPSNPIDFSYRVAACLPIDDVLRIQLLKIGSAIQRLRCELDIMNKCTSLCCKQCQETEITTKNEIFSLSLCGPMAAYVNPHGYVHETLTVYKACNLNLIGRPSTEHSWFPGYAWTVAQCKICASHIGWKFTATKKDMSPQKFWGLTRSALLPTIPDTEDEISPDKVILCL

Take `Nc1ccc(-c2ccc3c(c2)CC(=O)N3)cn1`: the IC50 is more than 300 µM.
